Data set [1] can be described thus: Maximum tolerable dose (MTD dose) in nude mice. The following applies: administered once, caudal vein, dose in terms of drug. It is filed as in vivo, BALB/cA-nu/nu mouse. The method, then:
Human stomach cancer 4-1ST was collected subcutaneously from a nude mouse and was finely cut into blocks each measuring about 3 mm on each side. The tumor blocks thus obtained were subcutaneously transplanted into the dorsal side of nude mice using a trocar. On the 15th day after transplantation, where the average tumor volume had reached about 100 to 200 mm^3, various drugs were administered through the caudal vein. The use and dose (in terms of drug) of the various administered drugs are as follows. In regard to the Example 1 compound, the compound was dissolved in a 5% glucose injectable solution, and the solution was administered once at a dose of 25 mg/kg or 12.5 mg/kg. In regard to the Example 2 compound, the compound was dissolved in a 5% glucose injectable solution, and the solution was administered once at a dose of 25 mg/kg or 12.5 mg/kg. In regard to the Example 3 compound, the compound was dissolved in a 5% glucose injectable solution, and the solution was administered once at a dose of 20 mg/kg or 10 mg/kg. In regard to the Example 4 compound, the compound was dissolved in a 5% glucose injectable solution, and the solution was administered once at a dose of 20 mg/kg or 10 mg/kg. In regard to the Example 5 compound, the compound was dissolved in a 5% glucose injectable solution, and the solution was administered once at a dose of 20 mg/kg or 10 mg/kg. As a control drug, l-OHP was administered once at a dose of 20 mg/kg, and cisplatin was administered once at a dose of 10 mg/kg. Regarding the amounts of administration of l-OHP and cisplatin and the high amounts of administration of the various Example compounds, the maximum tolerable doses (MTD doses) were employed for all of the compounds. After the administration, the major axis (L) and the minor axis (W) of the tumor were measured over time using calipers, and the tumor volume (L×W×W×0.5) was calculated. The test was performed by employing four animals per group for all of a non-administered group as well as various drug-administered groups. During the period from the initiation of administration to the 21st day after administration, the relative tumor volume (T/C (%)) of each drug-administered group based on the relative tumor volume of a non-drug-administered group as 100 was calculated by the following formula as an index for the antitumor effect. T/C(%)=Relative tumor volume of administered group/relative tumor volume of non-administered group×100 Formula: […]
Human stomach cancer 4-1ST was collected subcutaneously from a nude mouse and was cut into blocks each measuring about 3 mm on each side. The tumor blocks thus obtained were transplanted subcutaneously on the dorsal side of nude mice using a trocar. On the 17th day after transplantation, where the average tumor volume had reached about 100 to 200 mm^3, various drugs were administered through the caudal vein. The use and dose (in terms of drug) of the various administered drugs are as follows. In regard to the Example 11 compound, the compound was dissolved in a 5% glucose injectable solution, and the solution was administered once at a dose of 15 mg/kg or 7.5 mg/kg. In regard to the Example 12 compound, the compound was dissolved in a 5% glucose injectable solution, and the solution was administered once at a dose of 30 mg/kg or 15 mg/kg. As a control drug, l-OHP was administered once at a dose of 18 mg/kg, and cisplatin was administered once at a dose of 10 mg/kg. Regarding the amounts of administration of l-OHP and cisplatin and the high amounts of administration of the various Example compounds, the maximum tolerable doses (MTD doses) were employed for all of the compounds. After the administration, the major axis (L) and the minor axis (W) of the tumor were measured over time using calipers, and the tumor volume (L×W×W×0.5) was calculated. The test was performed by employing four animals per group for all of a non-administered group as well as various drug-administered groups. […]

A short description of data set [2]: Body weight of mice in Antitumor Test 3. In kind it is in vivo. The conditions noted are these: caudal vein. The method, then: Human stomach cancer 4-1ST was collected subcutaneously from a nude mouse and was cut into blocks each measuring about 3 mm on each side. The tumor blocks thus obtained were transplanted subcutaneously on the dorsal side of nude mice using a trocar. On the 20th day after transplantation, where the average tumor volume had reached about 100 to 200 mm^3, various drugs were administered through the caudal vein. The use and dose (in terms of drug) of the various administered drugs are as follows. In regard to the Example 7 compound, the compound was dissolved in a 5% glucose injectable solution, and the solution was administered once at a dose of 15 mg/kg or 7.5 mg/kg. In regard to the Example 16 compound, the compound was dissolved in a 5% glucose injectable solution, and the solution was administered once at a dose of 30 mg/kg or 15 mg/kg. As a control drug, l-OHP was administered once at a dose of 18 mg/kg or 9 mg/kg, and cisplatin was administered once at a dose of 10 mg/kg. Regarding the amounts of administration of l-OHP and cisplatin and the high amounts of administration of the various Example compounds, the maximum tolerable doses (MTD doses) were employed for all of the compounds. After the administration, the major axis (L) and the minor axis (W) of the tumor were measured over time using calipers, and the tumor volume (L×W×W×0.5) was calculated. The test was performed by employing four animals per group for all of a non-administered group as well as various drug-administered groups. During the period from the initiation of administration to the 21st day after administration, the relative tumor volume (T/C (%)) of each drug-administered group based on the relative tumor volume of a non-drug-administered group as 100 was calculated by the following formula as an index for the antitumor effect. T/C(%)=Relative tumor volume of administered group/relative tumor volume of non-administered group×100 Formula: […]
After the administration, the body weights of the mice were measured over time. During the period from the initiation of administration to the 21st day after administration, the changes in the relative body weight based on the body weight on the day of initiation of administration as 1 are presented in Table 7.

`N.N.[Cl][Pt][Cl]` [Cisplatin, cisplatin]: the “maximum tolerable dose (MTD dose)” value in data set [1] (Antitumor Test 1), in data set [1] (Antitumor Test 2) and in data set [1] (Antitumor Test 3) was 10 mg/kg throughout.

With `O=C1[O][Pt]2([NH][C@@H]3CCCC[C@H]3[NH]2)[O]C1=O` [l-OHP, oxaliplatin], the “maximum tolerable dose (MTD dose)” value was found to be 20 mg/kg in data set [1] (Antitumor Test 1), 18 mg/kg in data set [1] (Antitumor Test 2) and 18 mg/kg in data set [1] (Antitumor Test 3). For the same compound, the “Relative body weight in numbers of days after administration” value (shortened to “Relative body weight in numbers of days”) in data set [2] (9 mg/kg once, day 0) is listed as 1.00; in data set [2] (9 mg/kg once, day 4), 0.96; in data set [2] (9 mg/kg once, day 7), 1.00; in data set [2] (9 mg/kg once, day 11), 1.01; in data set [2] (9 mg/kg once, day 14), 1.02; in data set [2] (9 mg/kg once, day 18), 1.02. Also, the “Relative body weight in numbers of days” value in data set [2] (9 mg/kg once, day 21) was determined as 1.02; in data set [2] (18 mg/kg once, day 0), 1.00; in data set [2] (18 mg/kg once, day 4), 0.85; in data set [2] (18 mg/kg once, day 7), 0.89; in data set [2] (18 mg/kg once, day 11), 0.98; in data set [2] (18 mg/kg once, day 14) it was 1.01. Also, the “Relative body weight in numbers of days” value in data set [2] (18 mg/kg once, day 18) is given as 1.02; in data set [2] (18 mg/kg once, day 21) it was 1.04.

The record behind these values is patent publication US11033577B2, “Polymer conjugate of hexa-coordinated platinum complex” (priority 2015, dated 2021).
